Test results as given in patent publication US7981903B2, “2-[2-{phenylamino}-1H-pyrrolo[2,3-D]pyrimidin-4-yl)amino] benzamide derivatives as IGF-1R inhibitors for the treatment of cancer” (GlaxoSmithKline LLC, priority 2007, dated 2011).

Legend:
human IGF1R (hIGF1R) = target: T1, human IGF1R (hIGF1R) (Homo sapiens, UniProt P08069); experiment: TR-FRET kinase assay of purified hIGF1R; type: biochemical; conditions: activated hIGF1R 0.5 nM, 10 μM ATP, values given as pIC50 category, read-out: IGF-1R pIC50 (converted)
T1 construct: containing amino acid residues 957-1367 of human IGF1R; made in house; host or cells: Sf9 cells (baculovirus)

human IR (hIR) = target: T2, human IR (hIR) (Homo sapiens, UniProt P06213); experiment: TR-FRET kinase assay of purified hIR; type: biochemical; conditions: activated hIR 0.5 nM, 10 μM ATP, values given as pIC50 category
T2 construct: containing amino acid residues 979-1382 of human IR; made in house; host or cells: Sf9 cells (baculovirus), same process as hIGF1R

[1] = target: T3, NIH-3T3 cells overexpressing human IGF-1R (Homo sapiens, UniProt P08069); experiment: IGF-1R cellular autophosphorylation (DELFIA); type: cell-based
T3 construct: expressed in transfected cells; host or cells: NIH-3T3 (mouse fibroblasts)
Procedure, shortened: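 Receptor autophosphorylation measured by DELFIA, capturing IGF-1R or IRβ and detecting with europium anti-pTyr, reported as percent of IGF-1- or insulin-stimulated signal. Compounds (30 uM to 1.5 nM) added 2 h before ligand, then 15 min stimulation (IGF-1 30 ng/ml or insulin 3 ug/ml).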

T2 sequence (P06213 979-1382): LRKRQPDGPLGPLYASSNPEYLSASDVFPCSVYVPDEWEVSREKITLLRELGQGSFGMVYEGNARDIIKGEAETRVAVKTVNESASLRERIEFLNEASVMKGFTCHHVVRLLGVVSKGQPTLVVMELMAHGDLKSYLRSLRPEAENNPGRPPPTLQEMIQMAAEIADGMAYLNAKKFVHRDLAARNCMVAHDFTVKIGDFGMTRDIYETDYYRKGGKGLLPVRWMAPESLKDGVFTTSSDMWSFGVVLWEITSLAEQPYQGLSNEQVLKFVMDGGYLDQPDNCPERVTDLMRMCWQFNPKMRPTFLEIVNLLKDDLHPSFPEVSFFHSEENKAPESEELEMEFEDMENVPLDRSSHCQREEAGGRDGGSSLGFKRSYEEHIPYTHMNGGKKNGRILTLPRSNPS
T3 sequence (P08069 31-1367): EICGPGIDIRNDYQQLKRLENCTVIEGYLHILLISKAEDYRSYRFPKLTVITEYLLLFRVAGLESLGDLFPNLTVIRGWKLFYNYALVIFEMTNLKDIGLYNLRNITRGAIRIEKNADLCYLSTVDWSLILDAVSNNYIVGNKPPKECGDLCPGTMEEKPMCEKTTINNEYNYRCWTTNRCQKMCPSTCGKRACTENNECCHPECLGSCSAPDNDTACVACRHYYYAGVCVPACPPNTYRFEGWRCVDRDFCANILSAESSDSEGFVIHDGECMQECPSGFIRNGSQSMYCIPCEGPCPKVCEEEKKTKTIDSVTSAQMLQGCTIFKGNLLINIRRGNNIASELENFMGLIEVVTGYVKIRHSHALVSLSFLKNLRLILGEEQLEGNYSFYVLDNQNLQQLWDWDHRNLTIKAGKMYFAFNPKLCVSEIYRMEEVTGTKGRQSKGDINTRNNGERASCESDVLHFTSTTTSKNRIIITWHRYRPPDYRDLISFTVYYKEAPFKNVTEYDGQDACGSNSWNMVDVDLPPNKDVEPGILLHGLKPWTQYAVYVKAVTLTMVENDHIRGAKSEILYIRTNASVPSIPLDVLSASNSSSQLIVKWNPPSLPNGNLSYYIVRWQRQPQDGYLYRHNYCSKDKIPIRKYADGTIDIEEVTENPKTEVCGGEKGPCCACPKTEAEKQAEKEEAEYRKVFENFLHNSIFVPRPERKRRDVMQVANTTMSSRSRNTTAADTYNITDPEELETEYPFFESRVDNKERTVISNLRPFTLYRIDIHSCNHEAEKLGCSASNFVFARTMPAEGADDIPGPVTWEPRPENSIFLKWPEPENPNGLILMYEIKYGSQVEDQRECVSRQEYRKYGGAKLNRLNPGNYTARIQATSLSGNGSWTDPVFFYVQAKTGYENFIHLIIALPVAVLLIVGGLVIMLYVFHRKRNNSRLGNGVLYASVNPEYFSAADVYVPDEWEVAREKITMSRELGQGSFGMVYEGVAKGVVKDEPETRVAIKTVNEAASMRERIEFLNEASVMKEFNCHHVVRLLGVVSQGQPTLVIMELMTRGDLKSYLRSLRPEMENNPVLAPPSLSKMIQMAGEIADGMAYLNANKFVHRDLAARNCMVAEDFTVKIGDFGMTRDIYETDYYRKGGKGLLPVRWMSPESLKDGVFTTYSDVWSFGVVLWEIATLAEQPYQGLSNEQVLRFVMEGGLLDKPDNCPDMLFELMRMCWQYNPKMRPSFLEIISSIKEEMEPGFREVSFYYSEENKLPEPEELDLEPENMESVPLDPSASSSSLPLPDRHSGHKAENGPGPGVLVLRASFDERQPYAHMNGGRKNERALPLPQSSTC
T1 sequence (P08069 957-1367): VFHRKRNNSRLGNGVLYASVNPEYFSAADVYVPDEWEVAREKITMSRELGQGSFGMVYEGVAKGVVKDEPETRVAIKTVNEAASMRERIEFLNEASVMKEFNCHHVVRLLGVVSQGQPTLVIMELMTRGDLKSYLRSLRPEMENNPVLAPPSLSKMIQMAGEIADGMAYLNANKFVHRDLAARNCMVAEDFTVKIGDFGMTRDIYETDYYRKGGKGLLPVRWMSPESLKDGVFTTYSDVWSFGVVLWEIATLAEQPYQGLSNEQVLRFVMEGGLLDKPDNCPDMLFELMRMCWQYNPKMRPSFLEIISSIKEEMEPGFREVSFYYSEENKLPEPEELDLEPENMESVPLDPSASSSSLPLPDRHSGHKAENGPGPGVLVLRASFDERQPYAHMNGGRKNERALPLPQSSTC

Row | IC50 (human IGF1R (hIGF1R)) | IC50 (human IR (hIR)) | IC50 [1] | SMILES
1 | 1.26 to 3.98 nM | 1.26 to 3.98 nM | 100 to 500 nM | COc1ccc(N2CCN(C)CC2)cc1Nc1nc(Nc2ccccc2C(N)=O)c2cc[nH]c2n1 [Example 9, 2-[(2-{[2-(methyloxy)-5-(4-methyl-1-piperazinyl)phenyl]amino}-1H-pyrrolo[2,3-d]pyrimidin-4-yl)amino]benzamide]
2 | 1.26 to 3.98 nM | 1.26 to 3.98 nM | 100 to 500 nM | COc1ccc(N2CCN(C(C)C)CC2)cc1Nc1nc(Nc2ccccc2C(N)=O)c2cc[nH]c2n1 [Example 10, 2-[(2-{[5-[4-(1-methylethyl)-1-piperazinyl]-2-(methyloxy)phenyl]amino}-1H-pyrrolo[2,3-d]pyrimidin-4-yl)amino]benzamide]
3 | 0.251 to 1 nM | 0.251 to 1 nM | < 100 nM | CN(C)CC(=O)Nc1ccc(Cl)c(Nc2nc(Nc3ccccc3C(N)=O)c3cc[nH]c3n2)c1 [Example 18, 2-{[2-({2-chloro-5-[(N,N-dimethylglycyl)amino]phenyl}amino)-1H-pyrrolo[2,3-d]pyrimidin-4-yl]amino}benzamide]
4 | 1.26 to 3.98 nM | 1.26 to 3.98 nM | 100 to 500 nM | COc1cc(N2CCC(N3CC[C@H](F)C3)CC2)ccc1Nc1nc(Nc2cccc(F)c2C(N)=O)c2cc[nH]c2n1 [Example 43, 2-fluoro-6-[(2-{[4-{4-[(3S)-3-fluoro-1-pyrrolidinyl]-1-piperidinyl}-2-(methyloxy)phenyl]amino}-1H-pyrrolo[2,3-d]pyrimidin-4-yl)amino]benzamide]
5 | 1.26 to 3.98 nM | 1.26 to 3.98 nM | > 500 nM | COc1cc(N2CCC(N3CC[C@@H](F)C3)CC2)ccc1Nc1nc(Nc2cccc(F)c2C(N)=O)c2cc[nH]c2n1 [Example 44, 2-fluoro-6-[(2-{[4-{4-[(3R)-3-fluoro-1-pyrrolidinyl]-1-piperidinyl}-2-(methyloxy)phenyl]amino}-1H-pyrrolo[2,3-d]pyrimidin-4-yl)amino]benzamide]
6 | 1.26 to 3.98 nM |  | 100 to 500 nM | COc1cc(N2CCN(C(C)C)CC2)ccc1Nc1nc(Nc2cccc(F)c2C(N)=O)c2cc[nH]c2n1 [Example 46, 2-fluoro-6-[(2-{[4-[4-(1-methylethyl)-1-piperazinyl]-2-(methyloxy)phenyl]amino}-1H-pyrrolo[2,3-d]pyrimidin-4-yl)amino]benzamide]
7 | 1.26 to 3.98 nM |  | 100 to 500 nM | COc1cc(N2CCN(C(C)C)CC2)c(F)cc1Nc1nc(Nc2cccc(F)c2C(N)=O)c2cc[nH]c2n1 [Example 48, 2-fluoro-6-[(2-{[5-fluoro-4-[4-(1-methylethyl)-1-piperazinyl]-2-(methyloxy)phenyl]amino}-1H-pyrrolo[2,3-d]pyrimidin-4-yl)amino]benzamide]
8 | 1.26 to 3.98 nM | 1.26 to 3.98 nM | 100 to 500 nM | COc1cc(N2CCOC[C@@H]2C)ccc1Nc1nc(Nc2cccc(F)c2C(N)=O)c2cc[nH]c2n1 [Example 49, 2-fluoro-6-[(2-{[4-[(3S)-3-methyl-4-morpholinyl]-2-(methyloxy)phenyl]amino}-1H-pyrrolo[2,3-d]pyrimidin-4-yl)amino]benzamide]
9 | 1.26 to 3.98 nM |  | > 500 nM | COc1c(Nc2nc(Nc3cccc(F)c3C(N)=O)c3cc[nH]c3n2)ccc(N2CCN(C(C)C)CC2)c1F [Example 51, 2-fluoro-6-[(2-{[3-fluoro-4-[4-(1-methylethyl)-1-piperazinyl]-2-(methyloxy)phenyl]amino}-1H-pyrrolo[2,3-d]pyrimidin-4-yl)amino]benzamide]
10 | 1.26 to 3.98 nM |  | < 100 nM | COc1cc(N2CCN(CCS(C)(=O)=O)CC2)c(C)cc1Nc1nc(Nc2cccc(F)c2C(N)=O)c2cc[nH]c2n1 [Example 52, 2-fluoro-6-({2-[(5-methyl-2-(methyloxy)-4-{4-[2-(methylsulfonyl)ethyl]-1-piperazinyl}phenyl)amino]-1H-pyrrolo[2,3-d]pyrimidin-4-yl}amino)benzamide]
